Results taken from ChEMBL document CHEMBL1201862, “PubChem BioAssay data set” (2004).
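Cells were grown in 96-well plates and exposed to each compound for 48 hours at five concentrations; endpoints were interpolated linearly between bracketing concentrations, or set to the highest concentration if not reached. The concentration for 50% growth inhibition is given as GI50.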 Active and inactive are the calls of the source. Rule as the data show it: active = GI50 up to about 1.1 µM and inactive = higher.

Tests used:
Assay in all cases: NCI tumour cell line growth inhibition, 48 h
786-0 = test system: 786-0
A498 = test system: A498
A549 = test system: A549
ACHN = test system: ACHN
CCRF-CEM = test system: CCRF-CEM
COLO 205 = test system: COLO 205
DU-145 = test system: DU-145
EKVX = test system: EKVX
HCC 2998 = test system: HCC 2998
HCT-116 = test system: HCT-116
HCT-15 = test system: HCT-15
HL-60 = test system: HL-60
HOP-62 = test system: HOP-62
HT-29 = test system: HT-29
Hs-578T = test system: Hs-578T
IGROV-1 = test system: IGROV-1
K562 = test system: K562
KM12 = test system: KM12
M14 = test system: M14
MCF7 = test system: MCF7
MDA-MB-231 = test system: MDA-MB-231
MDA-MB-435 = test system: MDA-MB-435
MOLT-4 = test system: MOLT-4
Malme-3M = test system: Malme-3M
NCI-H226 = test system: NCI-H226
NCI-H23 = test system: NCI-H23
NCI-H460 = test system: NCI-H460
NCI/ADR-RES = test system: NCI/ADR-RES
OVCAR-4 = test system: OVCAR-4
OVCAR-5 = test system: OVCAR-5
OVCAR-8 = test system: OVCAR-8
RPMI-8226 = test system: RPMI-8226
RXF 393 = test system: RXF 393
SF-268 = test system: SF-268
SF-295 = test system: SF-295
SF-539 = test system: SF-539
SK-MEL-28 = test system: SK-MEL-28
SK-MEL-5 = test system: SK-MEL-5
SK-OV-3 = test system: SK-OV-3
SN12C = test system: SN12C
SNB-19 = test system: SNB-19
SNB-75 = test system: SNB-75
SR = test system: SR
SW-620 = test system: SW-620
T47D = test system: T47D
TK-10 = test system: TK-10
U-251 = test system: U-251
UACC-257 = test system: UACC-257
UACC-62 = test system: UACC-62
UO-31 = test system: UO-31
CAKI-1 = test system: CAKI-1
HOP-92 = test system: HOP-92
LOX IMVI = test system: LOX IMVI
MDA-N = test system: MDA-N
OVCAR-3 = test system: OVCAR-3
PC-3 = test system: PC-3
SK-MEL-2 = test system: SK-MEL-2

**Q.** For `CC(=O)C(C(C)=O)=C1CCCC(O)O1` (stereo not given), which GI50 (786-0) is on record?
**A.** > 100 µM (inactive)

**Q.** And the GI50 (A498)?
**A.** > 100 µM (inactive)

**Q.** And the GI50 (A549)?
**A.** > 100 µM (inactive)

**Q.** What about the GI50 (ACHN) of the same compound?
**A.** > 100 µM (inactive)

**Q.** What about the GI50 (CCRF-CEM) of the same compound?
**A.** 48.5 µM (inactive)

**Q.** What about the GI50 (COLO 205) of the same compound?
**A.** > 100 µM (inactive)

**Q.** And the GI50 (DU-145)?
**A.** > 100 µM (inactive)

**Q.** What about the GI50 (EKVX) of the same compound?
**A.** > 100 µM (inactive)

**Q.** And the GI50 (HCC 2998)?
**A.** > 100 µM (inactive)

**Q.** And the GI50 (HCT-116)?
**A.** > 100 µM (inactive)

**Q.** What about the GI50 (HCT-15) of the same compound?
**A.** > 100 µM

**Q.** And the GI50 (HL-60)?
**A.** > 100 µM (inactive)

**Q.** What about the GI50 (HOP-62) of the same compound?
**A.** > 100 µM (inactive)

**Q.** What about the GI50 (HT-29) of the same compound?
**A.** > 100 µM (inactive)

**Q.** And the GI50 (Hs-578T)?
**A.** 47.4 µM (inactive)

**Q.** And the GI50 (IGROV-1)?
**A.** > 100 µM (inactive)

**Q.** And the GI50 (K562)?
**A.** > 100 µM (inactive)

**Q.** What about the GI50 (KM12) of the same compound?
**A.** > 100 µM (inactive)

**Q.** What about the GI50 (M14) of the same compound?
**A.** > 100 µM (inactive)

**Q.** What about the GI50 (MCF7) of the same compound?
**A.** > 100 µM (inactive)

**Q.** What about the GI50 (MDA-MB-231) of the same compound?
**A.** > 100 µM (inactive)

**Q.** And the GI50 (MDA-MB-435)?
**A.** > 100 µM (inactive)

**Q.** And the GI50 (MOLT-4)?
**A.** > 100 µM (inactive)

**Q.** And the GI50 (Malme-3M)?
**A.** > 100 µM (inactive)

**Q.** And the GI50 (NCI-H226)?
**A.** > 100 µM (inactive)

**Q.** What about the GI50 (NCI-H23) of the same compound?
**A.** > 100 µM (inactive)

**Q.** What about the GI50 (NCI-H460) of the same compound?
**A.** > 100 µM (inactive)

**Q.** And the GI50 (NCI/ADR-RES)?
**A.** > 100 µM (inactive)

**Q.** What about the GI50 (OVCAR-4) of the same compound?
**A.** > 100 µM (inactive)

**Q.** What about the GI50 (OVCAR-5) of the same compound?
**A.** > 100 µM (inactive)

**Q.** What about the GI50 (OVCAR-8) of the same compound?
**A.** > 100 µM (inactive)

**Q.** What about the GI50 (RPMI-8226) of the same compound?
**A.** > 100 µM (inactive)

**Q.** What about the GI50 (RXF 393) of the same compound?
**A.** > 100 µM (inactive)

**Q.** And the GI50 (SF-268)?
**A.** > 100 µM (inactive)

**Q.** And the GI50 (SF-295)?
**A.** > 100 µM (inactive)

**Q.** What about the GI50 (SF-539) of the same compound?
**A.** > 100 µM (inactive)

**Q.** And the GI50 (SK-MEL-28)?
**A.** > 100 µM (inactive)

**Q.** And the GI50 (SK-MEL-5)?
**A.** > 100 µM (inactive)

**Q.** What about the GI50 (SK-OV-3) of the same compound?
**A.** > 100 µM (inactive)

**Q.** What about the GI50 (SN12C) of the same compound?
**A.** > 100 µM (inactive)

**Q.** What about the GI50 (SNB-19) of the same compound?
**A.** > 100 µM (inactive)

**Q.** And the GI50 (SNB-75)?
**A.** > 100 µM (inactive)

**Q.** And the GI50 (SR)?
**A.** 62.2 µM (inactive)

**Q.** What about the GI50 (SW-620) of the same compound?
**A.** > 100 µM (inactive)

**Q.** What about the GI50 (T47D) of the same compound?
**A.** > 100 µM (inactive)

**Q.** And the GI50 (TK-10)?
**A.** > 100 µM (inactive)

**Q.** And the GI50 (U-251)?
**A.** > 100 µM (inactive)

**Q.** And the GI50 (UACC-257)?
**A.** > 100 µM (inactive)

**Q.** What about the GI50 (UACC-62) of the same compound?
**A.** > 100 µM (inactive)

**Q.** And the GI50 (UO-31)?
**A.** > 100 µM (inactive)

**Q.** How did the GI50 (A498) turn out when `CCOC(=O)c1csc(NC(=O)C(C)N2CCCC2)n1` (stereo not given) was run?
**A.** > 100 µM (inactive)

**Q.** And the GI50 (A549)?
**A.** > 100 µM (inactive)

**Q.** And the GI50 (ACHN)?
**A.** > 100 µM (inactive)

**Q.** And the GI50 (CAKI-1)?
**A.** > 100 µM (inactive)

**Q.** What about the GI50 (CCRF-CEM) of the same compound?
**A.** > 100 µM (inactive)

**Q.** What about the GI50 (COLO 205) of the same compound?
**A.** > 100 µM (inactive)

**Q.** What about the GI50 (DU-145) of the same compound?
**A.** > 100 µM (inactive)

**Q.** And the GI50 (HCC 2998)?
**A.** > 100 µM (inactive)

**Q.** What about the GI50 (HCT-15) of the same compound?
**A.** > 100 µM

**Q.** And the GI50 (HOP-62)?
**A.** > 100 µM (inactive)

**Q.** And the GI50 (HOP-92)?
**A.** > 100 µM (inactive)

**Q.** And the GI50 (HT-29)?
**A.** > 100 µM (inactive)

**Q.** What about the GI50 (IGROV-1) of the same compound?
**A.** > 100 µM (inactive)

**Q.** What about the GI50 (K562) of the same compound?
**A.** > 100 µM (inactive)

**Q.** And the GI50 (KM12)?
**A.** > 100 µM (inactive)

**Q.** What about the GI50 (LOX IMVI) of the same compound?
**A.** > 100 µM (inactive)

**Q.** And the GI50 (M14)?
**A.** > 100 µM (inactive)

**Q.** And the GI50 (MCF7)?
**A.** > 100 µM (inactive)

**Q.** And the GI50 (MDA-MB-231)?
**A.** > 100 µM (inactive)

**Q.** And the GI50 (MDA-MB-435)?
**A.** > 100 µM (inactive)

**Q.** What about the GI50 (MDA-N) of the same compound?
**A.** > 100 µM (inactive)

**Q.** What about the GI50 (NCI-H23) of the same compound?
**A.** > 100 µM (inactive)

**Q.** And the GI50 (NCI-H460)?
**A.** > 100 µM (inactive)

**Q.** And the GI50 (OVCAR-3)?
**A.** > 100 µM (inactive)

**Q.** And the GI50 (OVCAR-4)?
**A.** > 100 µM (inactive)

**Q.** What about the GI50 (OVCAR-5) of the same compound?
**A.** > 100 µM (inactive)

**Q.** What about the GI50 (OVCAR-8) of the same compound?
**A.** > 100 µM (inactive)

**Q.** What about the GI50 (PC-3) of the same compound?
**A.** > 100 µM (inactive)

**Q.** What about the GI50 (RPMI-8226) of the same compound?
**A.** 19.3 µM (inactive)

**Q.** What about the GI50 (RXF 393) of the same compound?
**A.** > 100 µM (inactive)

**Q.** What about the GI50 (SF-295) of the same compound?
**A.** > 100 µM (inactive)

**Q.** And the GI50 (SF-539)?
**A.** > 100 µM (inactive)

**Q.** And the GI50 (SK-MEL-28)?
**A.** > 100 µM (inactive)

**Q.** What about the GI50 (SK-MEL-2) of the same compound?
**A.** > 100 µM (inactive)

**Q.** And the GI50 (SK-MEL-5)?
**A.** > 100 µM (inactive)

**Q.** What about the GI50 (SK-OV-3) of the same compound?
**A.** > 100 µM (inactive)

**Q.** And the GI50 (SNB-19)?
**A.** > 100 µM (inactive)

**Q.** And the GI50 (SNB-75)?
**A.** > 100 µM (inactive)

**Q.** And the GI50 (SW-620)?
**A.** > 100 µM (inactive)

**Q.** And the GI50 (T47D)?
**A.** > 100 µM (inactive)

**Q.** And the GI50 (TK-10)?
**A.** > 100 µM (inactive)

**Q.** And the GI50 (U-251)?
**A.** > 100 µM (inactive)

**Q.** And the GI50 (UACC-257)?
**A.** > 100 µM (inactive)

**Q.** What about the GI50 (UACC-62) of the same compound?
**A.** > 100 µM (inactive)

**Q.** What about the GI50 (UO-31) of the same compound?
**A.** > 100 µM (inactive)
